Publication PMC6766518 (Physiological Reports, 2019)
Read-outs that look alike come from different tables or passages of the source.

Key:
[1] = target: T1, PTHR1 (MC3T3‐E1 osteoblast cell line) (Mus musculus, UniProt P41593); assay: Intracellular cAMP generation in MC3T3-E1 osteoblast cells; format: cell-based
T1 construct: host or cells: MC3T3-E1 subclone 4
T1 sequence (P41593 27-591): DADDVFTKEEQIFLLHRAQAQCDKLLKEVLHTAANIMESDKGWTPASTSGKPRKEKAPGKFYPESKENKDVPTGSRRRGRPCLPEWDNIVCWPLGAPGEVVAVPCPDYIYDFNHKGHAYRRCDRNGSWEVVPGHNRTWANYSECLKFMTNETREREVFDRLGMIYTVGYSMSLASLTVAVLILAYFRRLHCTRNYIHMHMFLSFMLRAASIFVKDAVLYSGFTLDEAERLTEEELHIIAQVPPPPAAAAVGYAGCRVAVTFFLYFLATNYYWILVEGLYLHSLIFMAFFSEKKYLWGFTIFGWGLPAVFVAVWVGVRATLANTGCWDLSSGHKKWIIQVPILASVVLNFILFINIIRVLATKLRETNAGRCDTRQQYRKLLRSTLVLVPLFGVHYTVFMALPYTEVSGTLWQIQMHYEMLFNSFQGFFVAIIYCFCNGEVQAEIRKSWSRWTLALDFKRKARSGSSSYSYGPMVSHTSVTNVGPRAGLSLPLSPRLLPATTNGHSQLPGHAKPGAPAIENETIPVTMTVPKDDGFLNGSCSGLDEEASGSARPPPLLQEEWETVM

PTHR1 = target: T2, PTHR1 (Homo sapiens, UniProt Q03431); assay: PathHunter eXpress PTHR1 CHO-K1 β-arrestin GPCR assay (β-arrestin recruitment); format: cell-based; details: CHO‐K1 cells; abaloparatide vs teriparatide; P = 0.02
T2 sequence (Q03431 27-593): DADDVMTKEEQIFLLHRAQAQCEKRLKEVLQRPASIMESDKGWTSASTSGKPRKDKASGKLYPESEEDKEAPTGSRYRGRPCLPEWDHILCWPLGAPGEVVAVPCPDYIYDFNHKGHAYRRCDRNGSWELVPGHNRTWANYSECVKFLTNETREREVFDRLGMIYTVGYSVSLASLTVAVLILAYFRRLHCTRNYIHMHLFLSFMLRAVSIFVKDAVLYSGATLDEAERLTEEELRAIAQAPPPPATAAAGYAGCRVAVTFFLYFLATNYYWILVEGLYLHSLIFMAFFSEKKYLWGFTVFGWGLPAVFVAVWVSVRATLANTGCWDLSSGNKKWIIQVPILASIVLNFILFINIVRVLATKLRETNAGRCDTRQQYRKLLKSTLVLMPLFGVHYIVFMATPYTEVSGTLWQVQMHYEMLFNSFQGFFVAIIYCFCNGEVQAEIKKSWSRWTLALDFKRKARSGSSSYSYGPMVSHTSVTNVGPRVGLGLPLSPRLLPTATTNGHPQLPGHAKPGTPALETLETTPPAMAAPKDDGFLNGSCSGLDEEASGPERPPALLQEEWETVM

patients = details: cited from earlier work
[2] = tested on: female C57BL/6J mice (serum Ca^2+ and Pi); assay: Serum Ca2+ and Pi, colorimetric; details: 80 µg/kg/day SC, 30 days; 24 h after last injection; vs vehicle; N = 5 mice/group
Procedure: All animal procedures were reviewed and approved by the Institutional Animal Care and Use Committee at James J. Peters Veterans Affairs Medical Center. […] No peptide injection was performed on the day of animal sacrifice.
Blood was collected and serum was separated as described above. Serum Ca^2+ and Pi concentrations were measured using colorimetric Ca^2+ and Pi assay kits (Cat numbers K380 and K410, respectively) as indicated by the manufacturer (BioVision, Milpitas, CA).
For in vivo studies, five mice/group were used. […] Statistical analyses were performed using GraphPad Prism and Microsoft excel. […] The results are presented as the means ± SD. […] For carrying out multiple group comparisons (all in vivo experiments), one‐way analysis of variance (ANOVA) was performed. When ANOVA indicated unequal means, Tukey's honestly significant difference (HSD) posthoc test was performed to determine which means were different to the level of significance. Statistical significance was considered when P value was less than 0.05 (P < 0.05).
Sera were collected at sacrifice (24 h after last injection) and levels of Ca^2+ and Pi were measured using specific colorimetric assays. (A) Serum Ca^2+ levels. (B) Serum Pi levels. The statistical designation directly listed on the top of each bar indicates the significance level in comparison to vehicle. […] The data in all graph are expressed as the means ± SD. […]

[3] = tested on: patients with osteoporosis; details: ref Neer et al. 2001, cited from earlier work
Excerpt: Human life expectancy has increased, thanks to the advances in medical research and the subsequent improvement in health care. As a result, there is a growing demand for better management of the common illnesses of the increasing elderly population. One of these illnesses, osteoporosis, is a common world‐wide bone disorder and a major public health threat for 44 million Americans, 68% of them being women. Osteoporosis accounts for an estimated 1.5 million fractures in the US every year costing over 14 billion dollars. Furthermore, the National Osteoporosis Foundation estimates that 50% of wome ...

RANKL gene expression = details: in vivo and in vitro; ref Ricarte et al. 2018; cited from earlier work
Excerpt: PTHR1 is a member of subclass B seven transmembrane spanning GTP‐binding protein (G‐protein) coupled receptors (GPCR) that activates multiple G‐proteins, primarily the Gs but also Gq/11, Gi, and G12/13 G‐proteins. As a result, PTHR1 activation stimulates multiple downstream pathways and events such as Gs/adenylate cyclase/cAMP/protein kinase A, Gq11/phospholipase C/diacylglycerol‐inositol‐triphosphate‐Ca/protein kinase C, phospholipase D, and Src/β‐arrestin/MAPK pathways and PTHR1 phosphorylation and internalization (Abou‐Samra et al. 1992; Sneddon et al. 2000; Tawfeek et al. 2001; Tawfeek et ...

CC[C@H](C)[C@H](NC(=O)[C@H](CO)NC(=O)[C@H](CCCCN)NC(=O)CNC(=O)[C@H](CCCCN)NC(=O)[C@H](CC(=O)O)NC(=O)[C@H](Cc1cnc[nH]1)NC(=O)[C@H](CC(C)C)NC(=O)[C@H](CC(C)C)NC(=O)[C@H](CCC(N)=O)NC(=O)[C@H](Cc1cnc[nH]1)NC(=O)[C@H](CCC(=O)O)NC(=O)[C@H](CO)NC(=O)[C@@H](NC(=O)[C@H](C)N)C(C)C)C(=O)N[C@@H](CCC(N)=O)C(=O)N[C@@H](CC(=O)O)C(=O)N[C@@H](CC(C)C)C(=O)N[C@@H](CCCNC(=N)N)C(=O)N[C@@H](CCCNC(=N)N)C(=O)N[C@@H](CCCNC(=N)N)C(=O)N[C@@H](CCC(=O)O)C(=O)N[C@@H](CC(C)C)C(=O)N[C@@H](CC(C)C)C(=O)N[C@@H](CCC(=O)O)C(=O)N[C@@H](CCCCN)C(=O)N[C@@H](CC(C)C)C(=O)N[C@@H](CC(C)C)C(=O)NC(C)(C)C(=O)N[C@@H](CCCCN)C(=O)N[C@@H](CC(C)C)C(=O)N[C@@H](Cc1cnc[nH]1)C(=O)N[C@H](C(=O)N[C@@H](C)C(N)=O)[C@@H](C)O [abaloparatide]
EC50 ([1]; 0.01–100 nmol/L, 40 min at 37°C, 0.5 mmol/L IBMX, cAMP competitive ELISA, mean ± SD, three independent experiments, p = 0.02 between analogs, read-out: EC50 for cAMP formation): 0.3 ± 0.03 nM
Decrease in EC50 value for cAMP formation compared to teriparatide ([1]; abaloparatide vs teriparatide, p = 0.02): 2.3 fold
EC50 for β‐arrestin recruitment lower than that of teriparatide (PTHR1): 1.6 fold
Patients with hypercalcemia (patients; human, in vivo): 3.4%

CC[C@H](C)[C@H](NC(=O)[C@H](CCC(=O)O)NC(=O)[C@H](CO)NC(=O)[C@@H](NC(=O)[C@@H](N)CO)C(C)C)C(=O)N[C@@H](CCC(N)=O)C(=O)N[C@@H](CC(C)C)C(=O)N[C@@H](CCSC)C(=O)N[C@@H](Cc1cnc[nH]1)C(=O)N[C@@H](CC(N)=O)C(=O)N[C@@H](CC(C)C)C(=O)NCC(=O)N[C@@H](CCCCN)C(=O)N[C@@H](Cc1cnc[nH]1)C(=O)N[C@@H](CC(C)C)C(=O)N[C@@H](CC(N)=O)C(=O)N[C@@H](CO)C(=O)N[C@@H](CCSC)C(=O)N[C@@H](CCC(=O)O)C(=O)N[C@@H](CCCN=C(N)N)C(=O)N[C@H](C(=O)N[C@@H](CCC(=O)O)C(=O)N[C@@H](Cc1c[nH]c2ccccc12)C(=O)N[C@@H](CC(C)C)C(=O)N[C@@H](CCCN=C(N)N)C(=O)N[C@@H](CCCCN)C(=O)N[C@@H](CCCCN)C(=O)N[C@@H](CC(C)C)C(=O)N[C@@H](CCC(N)=O)C(=O)N[C@@H](CC(=O)O)C(=O)N[C@H](C(=O)N[C@@H](Cc1cnc[nH]1)C(=O)N[C@@H](CC(N)=O)C(=O)N[C@@H](Cc1ccccc1)C(=O)O)C(C)C)C(C)C [teriparatide]
Patients with hypercalcemia (patients; transient and infrequent event, ref Miller et al. 2018): 6.4%
Elevation in serum Pi [2]: 50%

PTH: PTH as administered in cited studies; context points to the amino‐terminal fragment PTH1‐34 (SVSEIQLMHNLGKHLNSMERVEWLRKKLQDVHNF; Parathyroid hormone; UniProt P01270 32-65, looked up, fragment)
Increase in BMD in spine and femur versus bisphosphonates ([3]; men and women with osteoporosis): more efficiently than treatment with bisphosphonates
Decrease in risk of vertebral and nonvertebral fractures [3]: more than 50%
RANKL gene expression (RANKL gene expression): larger RANKL gene expression in vivo and in vitro
